# Measured values as given in ChEMBL document CHEMBL1201862, “PubChem BioAssay data set” (2004).
# Values joined by “and” are separate entries in the source; they are usually repeats but may differ in a detail not shown here. Equal entries are not always repeated. Active and inactive are the calls of the source. Rule as the data show it, for most assays here: actives have a measured EC50 and inactives only a lower limit.
# Legend:
# [1] = target: T1, Rac GTPase-activating protein 1 (Homo sapiens, UniProt Q9H0H5); experiment: blockers of MgcRacGAP-driven Rac1 GTP hydrolysis – biochemical, ADP Hunter fluorescence, primary and confirmatory, confirmation (AID 624330); assay type: functional
# T1 sequence (Q9H0H5 whole entry): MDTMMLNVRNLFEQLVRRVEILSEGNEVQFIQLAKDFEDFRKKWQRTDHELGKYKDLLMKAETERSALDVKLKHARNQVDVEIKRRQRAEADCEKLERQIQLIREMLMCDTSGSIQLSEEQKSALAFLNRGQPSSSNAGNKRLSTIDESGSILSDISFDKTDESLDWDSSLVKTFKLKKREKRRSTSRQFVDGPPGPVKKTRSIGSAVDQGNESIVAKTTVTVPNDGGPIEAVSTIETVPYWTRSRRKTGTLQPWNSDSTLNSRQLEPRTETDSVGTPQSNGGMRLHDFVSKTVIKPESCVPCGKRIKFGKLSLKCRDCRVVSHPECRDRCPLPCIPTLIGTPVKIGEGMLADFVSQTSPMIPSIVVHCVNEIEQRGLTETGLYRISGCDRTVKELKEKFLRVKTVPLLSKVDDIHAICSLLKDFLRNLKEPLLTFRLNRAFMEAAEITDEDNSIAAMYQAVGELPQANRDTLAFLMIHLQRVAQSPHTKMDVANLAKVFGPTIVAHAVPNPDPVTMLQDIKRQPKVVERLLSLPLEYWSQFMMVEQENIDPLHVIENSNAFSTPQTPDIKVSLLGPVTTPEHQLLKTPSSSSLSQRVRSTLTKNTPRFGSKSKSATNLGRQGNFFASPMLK
# [2] = Trypanosoma cruzi growth suppression in host cells – NIH3T3 host cells, beta-gal luminescence, confirmation (AID 2044); assay type: functional, cell-based;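 also: intracellular parasites grown in NIH/3T3 mouse fibroblasts as host cells; luminescent beta-galactosidase reporter signal from transgenic T. cruzi replicating inside host cells; inhibitors lower the luminescence signal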
# [3] = NIH3T3 cell viability loss – ATP luminescence, mouse fibroblasts, counter-screen, dose response (AID 2010); assay type: functional, cell-based;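 also: cells exposed to compound for about 90 hours before reading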
# Cytochrome P450 1A2 = target: T2, Cytochrome P450 1A2 (Homo sapiens, UniProt P05177);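 also: PubChem cytochrome P450 panel assay, CYP1A2 panel member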
# T2 sequence (P05177 whole entry): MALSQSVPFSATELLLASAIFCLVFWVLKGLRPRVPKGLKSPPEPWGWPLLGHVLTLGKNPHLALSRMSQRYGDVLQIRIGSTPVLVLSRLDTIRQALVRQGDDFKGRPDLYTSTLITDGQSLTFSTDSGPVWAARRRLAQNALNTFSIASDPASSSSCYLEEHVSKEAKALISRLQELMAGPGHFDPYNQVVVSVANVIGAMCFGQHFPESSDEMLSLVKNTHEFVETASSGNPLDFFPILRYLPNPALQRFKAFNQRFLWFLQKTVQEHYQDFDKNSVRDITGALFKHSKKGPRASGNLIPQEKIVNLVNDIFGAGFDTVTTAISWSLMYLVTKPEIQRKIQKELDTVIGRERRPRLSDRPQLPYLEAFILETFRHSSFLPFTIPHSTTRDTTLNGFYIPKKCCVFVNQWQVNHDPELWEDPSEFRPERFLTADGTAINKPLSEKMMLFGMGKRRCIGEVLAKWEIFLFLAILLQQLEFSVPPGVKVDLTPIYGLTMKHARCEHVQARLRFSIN
# Streptococcus = experiment: GAS UMAA2166 growth inhibition – luminescence, BacTiterGlo, counter-screen for streptokinase expression inhibitor project, dose response (AID 1915); assay type: functional, organism-based;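 also: potency for reduction of bacterial viability or growth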
# Streptokinase A = target: T3, Streptokinase A (Streptococcus pyogenes serotype M1, UniProt P10520); experiment: viability-normalized secreted streptokinase activity reduction – plasminogen activation absorbance, OD405, dose response (AID 1914); assay type: functional, Streptococcus pyogenes M1 GAS;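 also: secreted streptokinase activity via plasminogen activation per viability signal from cell pellet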
# T3 sequence (P10520 whole entry): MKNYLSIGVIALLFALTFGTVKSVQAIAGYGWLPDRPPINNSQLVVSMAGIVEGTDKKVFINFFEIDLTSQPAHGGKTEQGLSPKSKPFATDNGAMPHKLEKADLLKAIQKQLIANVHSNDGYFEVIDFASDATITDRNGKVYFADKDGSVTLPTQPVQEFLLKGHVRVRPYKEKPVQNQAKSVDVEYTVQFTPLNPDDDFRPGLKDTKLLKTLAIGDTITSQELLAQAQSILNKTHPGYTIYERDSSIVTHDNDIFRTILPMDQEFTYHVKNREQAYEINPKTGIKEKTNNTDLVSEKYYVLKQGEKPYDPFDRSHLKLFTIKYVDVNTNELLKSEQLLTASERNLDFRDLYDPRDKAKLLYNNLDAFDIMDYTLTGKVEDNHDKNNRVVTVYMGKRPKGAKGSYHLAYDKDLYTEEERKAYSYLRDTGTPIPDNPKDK
# [4] = system: Streptococcus sp. 'group A'; experiment: Streptococcus pyogenes SK(-)GAS viability under kanamycin – luminescence, BacTiterGlo, confirmation, counter-screen for streptokinase expression inhibitor project, dose response (AID 1900); assay type: functional, organism-based
# [5] = Luminescence Cell-Based Dose Response HTS to Identify Activators of Luciferase Translation or Activity in H4 […] Cells. [Related pubchem assays: 1829 (Project Summary), 1814 (Primary HTS)]; assay type: functional
compound,measurement,setting,value
CN1CCC(N(C)CC(=O)Nc2ccc3c(c2)OC(F)(F)O3)CC1,IC50,[1],65.9 µM (active)
O=C(NCCCN1CCN(CCCNC(=O)c2cccc([N+](=O)[O-])c2)CC1)c1cccc([N+](=O)[O-])c1,EC50,[2],1.11 µM (active)
same,EC50,[3],> 30 µM (not active)
Cc1onc(-c2ccccc2Cl)c1C(=O)O/N=C(\N)c1ccccc1,EC50,[2],2.34 µM (active)
same,EC50,[3],> 60 µM (not active)
CCC/C=C(\CCC)C(NS(=O)(=O)c1ccc(Cl)cc1)c1ccccc1 (centres undefined),AC50,Cytochrome P450 1A2,12.6 µM (inconclusive)
COc1ccc(CN2CCN(Cc3ccc4ccccc4c3)CC2)cc1OC,IC50,[1],76.4 µM (active)
O=C(CSc1nc2nncc-2c(O)n1-c1ccc(Cl)c(Cl)c1)NCc1ccccc1Cl,EC50,[2],2.43 µM (active)
same,EC50,[3],> 60 µM (inconclusive)
Nc1ccc(OCc2ccco2)cc1,IC50,[1],49.8 µM (active)
O=C(Nc1ccccc1N1CCCC1)c1ccc2c(c1)OCO2,EC50,Streptococcus,> 150 µM (not active)
same,EC50,Streptokinase A,> 150 µM (not active)
same,EC50,[4],> 150 µM (not active)
Cc1ccc(NP(=O)(c2ccc(N(C)C)cc2NC(=O)c2cccs2)N2CCOCC2)cc1 (centres undefined),EC50,[2],1.49 µM (active)
same,EC50,[3],> 60 µM (not active)
CC(=O)Nc1ccc(OC(=O)c2cc3ccccc3oc2=O)cc1,IC50,[1],23.2 µM (active)
O=C(NC1CCCC1)C(c1ccccc1)N(Cc1cccnc1)C(=O)Cc1cccs1 (centres undefined),EC50,[2],1.45 µM (active)
same,EC50,[3],> 60 µM (not active)
COc1ccc(NC(=O)CN(C)C(=O)/C=C/c2cn(-c3ccccc3)nc2-c2ccc(F)cc2)cc1,EC50,Streptococcus,68.1 µM (active)
same,EC50,Streptokinase A,53.8 µM (inconclusive)
same,EC50,[4],26.5 µM (active)
CCCCc1sc(-c2c(C#N)c(N)nc3c2CCCCC3)cc1[N+](=O)[O-],EC50,[2],1.98 µM (active)
same,EC50,[3],> 60 µM (not active)
CC(CCN1CCN(CCO)CC1)c1ccccc1 (centres undefined),IC50,[1],153 µM (active)
COc1ccc(CCC(=O)N2CCN(C3CCCCC3)CC2)cc1,EC50,[2],1.53 µM (active)
same,EC50,[3],> 60 µM (not active)
Cc1ccc(NC(=O)COc2ccc(CCO)cc2-n2nc3ccccc3n2)cc1C,EC50,[2],1.61 µM (active)
same,EC50,[3],> 60 µM (inconclusive)
COc1ccc(C(=O)NCC(=O)OCC(=O)N2N=C(c3ccc(Cl)cc3)CC2c2ccco2)cc1OC (centres undefined),EC50,Streptococcus,> 150 µM (not active)
same,EC50,Streptokinase A,> 150 µM (not active)
same,EC50,[4],47 µM (active)
Cc1oc(-c2cc(Cl)cc(Cl)c2)cc1C(=O)NCCc1ccccc1,EC50,Streptococcus,48.3 µM (active)
same,EC50,Streptokinase A,2.57 µM (active)
same,EC50,[4],17.3 µM (active)
CCOC(=O)C1(CCOc2ccccc2)CCN(Cc2cccc3nonc23)CC1,EC50,[2],1.49 µM (active)
same,EC50,[3],> 60 µM (not active)
COc1ccccc1-c1nnc(NC(=O)CCS(=O)(=O)c2ccccc2)o1,EC50,Streptococcus,> 150 µM (not active)
same,EC50,Streptokinase A,> 150 µM (not active)
same,EC50,[4],> 150 µM (not active)
C[C@H]1C=C2C=C[C@H](C)[C@H](CC[C@@H]3C[C@@H](O)CC(=O)O3)[C@H]2[C@@H](OC(=O)[C@@H](C)CCO)C1,AC50,Cytochrome P450 1A2,31.6 µM (inconclusive)
Fc1ccc(N2CCN(Cc3c[nH]c4ccccc34)CC2)cc1,EC50,[2],0.69 µM (active)
same,EC50,[3],> 60 µM (not active)
O=C(CCC1CCCN(Cc2ccncc2)C1)NCc1ccc(F)c(F)c1 (centres undefined),EC50,[2],0.661 µM (active)
same,EC50,[3],> 60 µM (not active)
CC(C)/C=C1\CC/C(=C\c2cccnc2)C1=O,EC50,[2],1.14 µM (active)
same,EC50,[3],> 60 µM (not active)
CC(C)(C)OC(=O)NCCCC[C@H](NC(=O)c1[nH]cnc1C(=O)Nc1ccc(Cl)cc1)C(=O)OC(C)(C)C,EC50,Streptococcus,8.04 µM (active)
same,EC50,Streptokinase A,> 150 µM (not active)
same,EC50,[4],3.64 µM (active)
O=C(Nc1ccc(-c2csc(Nc3ccc(Cl)cc3)n2)cc1)c1cccc(C(F)(F)F)c1,EC50,[2],1.76 µM (active)
same,EC50,[3],7.75 µM (active)
COc1c(Cl)cc(Cl)cc1C(=O)Nc1ccc(NC(=O)c2cccs2)cc1,EC50,[2],1.95 µM (active)
same,EC50,[3],> 60 µM (not active)
COc1cccc(C(=O)C2CCCN(Cc3ccc(OC)c(Cn4cncn4)c3)C2)c1 (centres undefined),EC50,[2],0.398 µM (active)
same,EC50,[3],> 60 µM (not active)
CC(C)Sc1cc(N2CCCC2)nc(-c2ccccc2)n1,EC50,Streptococcus,> 150 µM (not active)
same,EC50,Streptokinase A,11.2 µM (active)
same,EC50,[4],12.3 µM (active)
CCN1CCN(c2ccc(S(=O)(=O)N3CCOCC3)cc2NC(=O)COc2ccc(F)cc2Cl)CC1,EC50,[2],1.06 µM (active)
same,EC50,[3],19.2 µM (active)
Cc1ccc(S(=O)(=O)N2CCC(C(=O)Nc3ccc(S(=O)(=O)N4CCCC4)cc3)CC2)cc1C,EC50,[2],0.795 µM (active)
same,EC50,[3],> 30 µM (not active)
CCc1ccc2c(c1)C(c1ccc(N3CCOCC3)cc1)=NNC(c1ccncc1)=N2,EC50,[2],1.5 µM (active)
same,EC50,[3],> 30 µM (not active)
O=C(NC(=S)N1CCCCC1c1cccnc1)c1ccc(F)cc1 (centres undefined),EC50,Streptococcus,> 150 µM (not active)
same,EC50,Streptokinase A,> 150 µM (not active)
same,EC50,[4],> 150 µM (not active)
CSc1ccc(/C=C2\CCn3c2nc2cc(C(=O)O)ccc2c3=O)cc1,EC50,Streptococcus,> 150 µM (not active)
same,EC50,Streptokinase A,> 150 µM (not active)
same,EC50,[4],23.1 µM (active)
CCOC(=O)c1[nH]c2ccccc2c1N=C(S)Nc1ccccc1C,IC50,[1],65.9 µM (active)
CCN1C(=O)c2ccc(C(=O)Nc3ccc(O)cc3C)cc2C1=O,IC50,[1],108 µM (active)
C[C@@H]1C[C@H](OC(=O)c2ccccc2O)CC(C)(C)C1,AC50,Cytochrome P450 1A2,12.6 µM (inconclusive)
NS(=O)(=O)c1ccc(CCNCC(=O)N2CCC(Cc3ccccc3)CC2)cc1,IC50,[1],283 µM (active)
Brc1ccc(OCc2ccccc2)c(CNCc2ccncc2)c1,EC50,[2],0.802 µM (active)
same,EC50,[3],> 60 µM (not active)
COc1ccc(NC(=O)c2ccc(NC(=O)CN3CCN(c4ccc(O)cc4)CC3)cc2)cc1,IC50,[1],63 µM (active)
N#CCCN1CCN(CCC#N)c2ccccc21,IC50,[1],16.1 µM (active)
CCCN(CCC)[C@H]1CCc2c(F)ccc(O)c2C1,AC50,Cytochrome P450 1A2,12.6 µM (inconclusive) and 25.1 µM (inconclusive)
CC(C)c1ccc(/C=N/N2CCCCC2)cc1,IC50,[1],220 µM (active)
COc1cc(/C=N/NC(=O)c2nnn(-c3nonc3N)c2C(C)C)ccc1O,IC50,[1],31 µM (active)
CC(C)c1ccc(/C=N/n2c(S)nnc2-c2ccccc2)cc1,EC50,Streptococcus,> 150 µM (not active)
same,EC50,Streptokinase A,> 150 µM (not active)
same,EC50,[4],18.3 µM (active)
COc1ccc2c(c1)CC/C2=N\OC(=O)c1cccc(C)c1,EC50,[5],0.105 µM (active)
COc1cccc(/C=N/NC(=O)c2cccc([N+](=O)[O-])c2)c1OS(=O)(=O)c1ccc(C)cc1,AC50,Cytochrome P450 1A2,6.31 µM (inconclusive)
COc1c(-c2ccc(O)c(O)c2)oc2cc(O)cc(O)c2c1=O [3-O-METHYLQUERCETIN],IC50,[1],30.3 µM (active)
O=C1CCc2cc(OCCCCc3nnnn3C3CCCCC3)ccc2N1 [CILOSTAZOL],AC50,Cytochrome P450 1A2,39.8 µM (inconclusive)
CC(=O)CCCCn1c(=O)c2c(ncn2C)n(C)c1=O [PENTOXIFYLLINE],AC50,Cytochrome P450 1A2,12.6 µM (inconclusive)
